In ChEMBL document CHEMBL3991601, “The target landscape of clinical kinase drugs” (Science, 2017):
Activity calls are given as the source filed them.

Key:
[1] = molecular target: Serine/threonine-protein kinase B-raf (Homo sapiens, UniProt P15056)
[2] = molecular target: Mitotic checkpoint serine/threonine-protein kinase BUB1 (Homo sapiens, UniProt O43683)
[3] = molecular target: T1, Cysteine--tRNA ligase, cytoplasmic (Homo sapiens, UniProt P49589)
T1 sequence (P49589 whole entry): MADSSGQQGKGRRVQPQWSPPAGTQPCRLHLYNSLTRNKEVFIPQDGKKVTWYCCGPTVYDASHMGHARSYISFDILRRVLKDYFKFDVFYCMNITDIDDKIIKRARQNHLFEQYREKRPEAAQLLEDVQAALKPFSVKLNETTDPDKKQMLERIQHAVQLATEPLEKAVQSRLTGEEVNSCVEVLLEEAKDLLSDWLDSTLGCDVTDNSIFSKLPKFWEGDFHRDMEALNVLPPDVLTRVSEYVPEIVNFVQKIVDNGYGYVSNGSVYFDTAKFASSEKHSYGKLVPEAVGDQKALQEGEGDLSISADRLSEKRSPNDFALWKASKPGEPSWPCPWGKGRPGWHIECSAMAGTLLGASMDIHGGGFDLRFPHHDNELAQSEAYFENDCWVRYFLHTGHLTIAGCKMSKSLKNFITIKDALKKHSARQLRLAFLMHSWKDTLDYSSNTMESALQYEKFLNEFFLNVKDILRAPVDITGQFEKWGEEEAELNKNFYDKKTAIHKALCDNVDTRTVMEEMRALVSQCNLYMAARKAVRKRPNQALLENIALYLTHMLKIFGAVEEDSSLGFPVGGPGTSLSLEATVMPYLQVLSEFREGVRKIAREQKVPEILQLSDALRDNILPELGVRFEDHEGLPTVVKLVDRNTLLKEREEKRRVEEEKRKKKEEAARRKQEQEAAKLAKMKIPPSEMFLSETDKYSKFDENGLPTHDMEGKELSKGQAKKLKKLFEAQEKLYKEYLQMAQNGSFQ

[4] = molecular target: T2, Probable ATP-dependent RNA helicase DDX6 (Homo sapiens, UniProt P26196)
T2 sequence (P26196 whole entry): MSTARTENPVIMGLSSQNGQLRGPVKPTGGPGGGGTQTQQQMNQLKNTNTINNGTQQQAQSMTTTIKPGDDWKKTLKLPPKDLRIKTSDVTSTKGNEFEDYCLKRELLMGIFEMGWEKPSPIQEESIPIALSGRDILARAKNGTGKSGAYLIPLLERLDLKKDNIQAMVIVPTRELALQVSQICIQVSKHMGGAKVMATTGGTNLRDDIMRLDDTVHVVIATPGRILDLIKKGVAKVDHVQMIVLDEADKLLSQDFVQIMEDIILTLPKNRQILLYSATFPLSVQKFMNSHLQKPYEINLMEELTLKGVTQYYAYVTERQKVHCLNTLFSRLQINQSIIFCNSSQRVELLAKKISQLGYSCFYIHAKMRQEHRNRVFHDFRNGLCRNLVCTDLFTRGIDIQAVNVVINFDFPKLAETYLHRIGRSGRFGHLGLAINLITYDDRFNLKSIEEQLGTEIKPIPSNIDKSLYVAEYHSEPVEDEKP

[5] = molecular target: T3, Serine/threonine-protein kinase LATS1 (Homo sapiens, UniProt O95835)
T3 sequence (O95835 whole entry): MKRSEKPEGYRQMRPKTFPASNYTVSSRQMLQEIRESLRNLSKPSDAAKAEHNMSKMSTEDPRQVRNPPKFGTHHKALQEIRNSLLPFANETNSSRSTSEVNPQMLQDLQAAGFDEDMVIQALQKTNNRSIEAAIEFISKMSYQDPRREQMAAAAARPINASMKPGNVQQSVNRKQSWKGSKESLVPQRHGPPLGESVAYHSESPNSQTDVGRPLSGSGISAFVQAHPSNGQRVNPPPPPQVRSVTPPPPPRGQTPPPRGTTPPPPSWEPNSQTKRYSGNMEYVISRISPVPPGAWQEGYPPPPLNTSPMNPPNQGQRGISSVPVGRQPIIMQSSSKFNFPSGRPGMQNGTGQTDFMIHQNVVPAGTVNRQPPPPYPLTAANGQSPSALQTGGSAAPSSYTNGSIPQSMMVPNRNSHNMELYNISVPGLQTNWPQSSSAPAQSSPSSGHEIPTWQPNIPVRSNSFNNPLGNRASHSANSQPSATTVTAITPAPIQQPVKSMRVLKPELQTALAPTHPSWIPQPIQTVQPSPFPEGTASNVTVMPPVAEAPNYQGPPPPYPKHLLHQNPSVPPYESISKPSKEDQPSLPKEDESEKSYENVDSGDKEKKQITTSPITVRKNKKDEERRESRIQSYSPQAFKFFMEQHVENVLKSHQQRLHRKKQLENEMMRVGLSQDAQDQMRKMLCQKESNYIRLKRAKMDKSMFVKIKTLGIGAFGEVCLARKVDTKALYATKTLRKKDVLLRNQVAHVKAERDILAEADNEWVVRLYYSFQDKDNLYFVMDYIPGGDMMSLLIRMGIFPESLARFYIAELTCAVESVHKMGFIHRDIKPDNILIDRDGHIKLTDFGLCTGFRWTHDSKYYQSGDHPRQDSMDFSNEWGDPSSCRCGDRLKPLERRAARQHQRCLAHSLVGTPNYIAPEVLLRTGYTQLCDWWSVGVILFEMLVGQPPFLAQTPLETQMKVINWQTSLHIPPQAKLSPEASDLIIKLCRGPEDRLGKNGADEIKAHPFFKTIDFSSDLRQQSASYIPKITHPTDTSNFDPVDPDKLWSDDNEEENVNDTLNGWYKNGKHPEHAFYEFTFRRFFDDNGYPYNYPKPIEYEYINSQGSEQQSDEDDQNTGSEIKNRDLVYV

[6] = molecular target: Mitogen-activated protein kinase 3 (Homo sapiens, UniProt P27361)
Chain of Mitogen-activated protein kinase 3 (P27361 whole entry): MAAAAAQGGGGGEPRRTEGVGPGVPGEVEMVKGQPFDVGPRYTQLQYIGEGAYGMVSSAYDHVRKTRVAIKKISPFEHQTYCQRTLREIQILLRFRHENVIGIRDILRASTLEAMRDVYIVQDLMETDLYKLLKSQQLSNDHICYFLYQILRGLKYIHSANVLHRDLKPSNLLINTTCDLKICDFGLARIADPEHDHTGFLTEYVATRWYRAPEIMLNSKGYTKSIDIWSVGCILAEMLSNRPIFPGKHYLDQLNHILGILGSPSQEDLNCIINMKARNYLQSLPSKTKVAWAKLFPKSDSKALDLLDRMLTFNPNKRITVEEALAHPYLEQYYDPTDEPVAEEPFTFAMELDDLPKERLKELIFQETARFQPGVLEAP

Midasin = Midasin (Homo sapiens, UniProt Q9NU22)
ADP/ATP translocase 2 = molecular target: T4, ADP/ATP translocase 2 (Homo sapiens, UniProt P05141)
T4 sequence (P05141 whole entry): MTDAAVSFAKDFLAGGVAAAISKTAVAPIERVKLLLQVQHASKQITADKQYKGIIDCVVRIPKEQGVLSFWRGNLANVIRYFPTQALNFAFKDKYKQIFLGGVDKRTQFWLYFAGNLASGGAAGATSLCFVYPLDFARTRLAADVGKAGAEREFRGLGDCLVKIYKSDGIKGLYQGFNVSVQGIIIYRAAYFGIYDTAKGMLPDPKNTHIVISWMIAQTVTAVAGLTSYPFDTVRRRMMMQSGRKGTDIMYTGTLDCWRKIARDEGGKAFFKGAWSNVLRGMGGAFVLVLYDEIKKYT

[7] = molecular target: 5'-AMP-activated protein kinase catalytic subunit alpha-1 (Homo sapiens, UniProt Q13131)
Chain of 5'-AMP-activated protein kinase catalytic subunit alpha-1 (Q13131 whole entry): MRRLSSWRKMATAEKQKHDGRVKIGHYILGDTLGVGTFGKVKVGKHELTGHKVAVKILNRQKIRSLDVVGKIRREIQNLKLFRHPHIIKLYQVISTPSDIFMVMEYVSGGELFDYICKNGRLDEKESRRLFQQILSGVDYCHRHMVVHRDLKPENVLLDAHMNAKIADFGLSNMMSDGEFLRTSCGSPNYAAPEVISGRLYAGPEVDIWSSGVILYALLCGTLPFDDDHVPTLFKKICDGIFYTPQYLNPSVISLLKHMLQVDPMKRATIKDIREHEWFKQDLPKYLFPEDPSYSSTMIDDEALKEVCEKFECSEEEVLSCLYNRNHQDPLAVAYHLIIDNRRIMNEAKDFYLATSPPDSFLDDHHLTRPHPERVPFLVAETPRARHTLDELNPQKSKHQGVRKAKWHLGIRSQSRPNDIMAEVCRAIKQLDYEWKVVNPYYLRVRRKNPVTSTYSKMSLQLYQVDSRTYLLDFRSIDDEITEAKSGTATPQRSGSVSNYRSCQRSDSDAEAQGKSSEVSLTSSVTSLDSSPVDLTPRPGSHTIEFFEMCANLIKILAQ

[8] = molecular target: Ribosomal protein S6 kinase alpha-4 (Homo sapiens, UniProt O75676)
Chain of Ribosomal protein S6 kinase alpha-4 (O75676 whole entry): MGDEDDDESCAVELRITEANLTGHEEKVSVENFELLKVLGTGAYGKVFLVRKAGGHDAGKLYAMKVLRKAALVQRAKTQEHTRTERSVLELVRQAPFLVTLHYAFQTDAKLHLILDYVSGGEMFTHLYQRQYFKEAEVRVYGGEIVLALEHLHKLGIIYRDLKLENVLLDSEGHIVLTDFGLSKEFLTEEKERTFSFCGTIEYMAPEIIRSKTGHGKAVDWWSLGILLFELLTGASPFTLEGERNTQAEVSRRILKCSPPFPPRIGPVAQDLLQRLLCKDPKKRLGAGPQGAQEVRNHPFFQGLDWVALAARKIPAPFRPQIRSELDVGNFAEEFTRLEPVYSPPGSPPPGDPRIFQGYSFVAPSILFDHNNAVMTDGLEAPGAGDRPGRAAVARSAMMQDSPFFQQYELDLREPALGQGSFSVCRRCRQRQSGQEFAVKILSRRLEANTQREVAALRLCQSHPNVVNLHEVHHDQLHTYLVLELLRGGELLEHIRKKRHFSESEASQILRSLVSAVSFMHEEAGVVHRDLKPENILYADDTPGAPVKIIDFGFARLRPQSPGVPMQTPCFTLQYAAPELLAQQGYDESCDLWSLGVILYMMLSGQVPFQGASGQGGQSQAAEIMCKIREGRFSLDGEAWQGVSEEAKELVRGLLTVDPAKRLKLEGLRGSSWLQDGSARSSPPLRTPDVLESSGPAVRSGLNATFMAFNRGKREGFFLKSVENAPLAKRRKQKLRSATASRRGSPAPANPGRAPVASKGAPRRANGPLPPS
Also: in the data inactive means no Kd found up to 30 µM.

Chain of Serine/threonine-protein kinase B-raf (P15056 whole entry): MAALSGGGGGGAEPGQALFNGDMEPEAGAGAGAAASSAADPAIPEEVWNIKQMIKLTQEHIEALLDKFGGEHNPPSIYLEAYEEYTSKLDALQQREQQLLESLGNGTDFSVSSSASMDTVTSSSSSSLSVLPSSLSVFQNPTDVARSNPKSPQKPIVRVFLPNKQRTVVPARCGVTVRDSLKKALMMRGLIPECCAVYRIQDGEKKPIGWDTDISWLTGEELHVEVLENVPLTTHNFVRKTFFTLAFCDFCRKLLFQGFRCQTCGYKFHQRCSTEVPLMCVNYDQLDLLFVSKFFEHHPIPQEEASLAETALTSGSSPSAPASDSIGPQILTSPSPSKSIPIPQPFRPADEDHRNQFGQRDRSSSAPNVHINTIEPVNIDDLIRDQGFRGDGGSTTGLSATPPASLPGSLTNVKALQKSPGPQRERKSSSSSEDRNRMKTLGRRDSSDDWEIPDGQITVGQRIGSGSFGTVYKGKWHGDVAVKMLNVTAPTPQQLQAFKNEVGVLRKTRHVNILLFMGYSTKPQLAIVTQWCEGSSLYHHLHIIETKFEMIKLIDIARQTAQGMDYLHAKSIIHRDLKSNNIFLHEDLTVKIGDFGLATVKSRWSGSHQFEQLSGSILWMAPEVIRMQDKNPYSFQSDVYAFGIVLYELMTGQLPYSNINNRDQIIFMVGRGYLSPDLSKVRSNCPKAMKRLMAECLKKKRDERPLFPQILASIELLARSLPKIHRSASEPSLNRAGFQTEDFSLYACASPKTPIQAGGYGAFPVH
Chain of Mitotic checkpoint serine/threonine-protein kinase BUB1 (O43683 whole entry): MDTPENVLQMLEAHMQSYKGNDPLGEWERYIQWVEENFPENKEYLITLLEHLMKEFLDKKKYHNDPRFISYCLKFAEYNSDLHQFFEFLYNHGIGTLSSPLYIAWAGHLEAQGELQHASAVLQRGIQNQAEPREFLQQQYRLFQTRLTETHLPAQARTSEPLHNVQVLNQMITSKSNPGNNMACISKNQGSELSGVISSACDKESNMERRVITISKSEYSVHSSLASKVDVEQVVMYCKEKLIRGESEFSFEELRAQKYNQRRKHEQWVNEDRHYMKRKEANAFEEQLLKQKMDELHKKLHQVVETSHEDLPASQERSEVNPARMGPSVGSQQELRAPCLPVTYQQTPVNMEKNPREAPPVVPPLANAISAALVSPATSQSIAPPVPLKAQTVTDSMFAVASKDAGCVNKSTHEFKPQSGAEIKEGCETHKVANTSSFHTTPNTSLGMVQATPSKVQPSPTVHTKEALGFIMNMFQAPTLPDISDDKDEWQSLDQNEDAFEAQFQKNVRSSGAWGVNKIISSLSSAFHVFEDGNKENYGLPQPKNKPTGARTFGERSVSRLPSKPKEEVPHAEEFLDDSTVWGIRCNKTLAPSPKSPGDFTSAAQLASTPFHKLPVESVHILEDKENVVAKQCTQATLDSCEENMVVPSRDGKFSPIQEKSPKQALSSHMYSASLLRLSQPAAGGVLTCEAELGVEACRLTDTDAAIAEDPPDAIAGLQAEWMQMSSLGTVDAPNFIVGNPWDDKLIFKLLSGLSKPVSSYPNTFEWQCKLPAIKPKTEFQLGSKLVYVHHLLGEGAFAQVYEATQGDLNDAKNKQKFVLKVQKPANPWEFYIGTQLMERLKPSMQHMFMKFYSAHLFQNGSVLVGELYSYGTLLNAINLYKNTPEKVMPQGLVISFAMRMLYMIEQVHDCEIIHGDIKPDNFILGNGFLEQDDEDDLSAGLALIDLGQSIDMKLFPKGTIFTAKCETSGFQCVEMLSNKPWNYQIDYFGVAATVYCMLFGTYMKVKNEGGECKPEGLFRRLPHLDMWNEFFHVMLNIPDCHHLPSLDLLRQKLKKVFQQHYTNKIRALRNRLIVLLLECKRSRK

Row | Compound | Kd [1] | Kd [2] | Kd [3] | Kd [4] | Kd [5] | Kd [6] | Kd (Midasin) | Kd (ADP/ATP translocase 2) | Kd [7] | Kd [8]
1 | COc1cc(Nc2ncc3c(n2)-c2ccc(Cl)cc2C(c2c(F)cccc2OC)=NC3)ccc1C(=O)O [ALISERTIB] | > 30 µM (inactive) | > 30 µM (inactive) | > 30 µM (inactive) | > 30 µM (inactive) | > 30 µM (inactive) | > 30 µM (inactive) | > 30 µM (inactive) | > 30 µM (inactive) |  | 
2 | Cc1nc(NC(=O)N2CCC[C@H]2C(N)=O)sc1-c1ccnc(C(C)(C)C(F)(F)F)c1 [ALPELISIB] | > 30 µM (inactive) |  | > 30 µM (inactive) | > 30 µM (inactive) | > 30 µM (inactive) | > 30 µM (inactive) | > 30 µM (inactive) | > 30 µM (inactive) | > 30 µM (inactive) | > 30 µM (inactive)
3 | O=C(Nc1c[nH]nc1-c1nc2cc(CN3CCOCC3)ccc2[nH]1)NC1CC1 [AT-9283] | > 30 µM (inactive) | 0.094 µM (active) | > 30 µM (inactive) | > 30 µM (inactive) | 0.045 µM (active) | > 30 µM (inactive) | > 30 µM (inactive) | > 30 µM (inactive) | 0.05 µM (active) | 
4 | Cc1cc(C(=O)NOCCO)c(Nc2ccc(I)cc2F)n(C)c1=O [AZD-8330] | > 30 µM (inactive) |  | > 30 µM (inactive) | > 30 µM (inactive) | > 30 µM (inactive) | > 30 µM (inactive) | > 30 µM (inactive) | > 30 µM (inactive) | > 30 µM (inactive) | > 30 µM (inactive)
5 | O=C(Nc1cc(C(F)(F)F)cc(C(F)(F)F)c1)c1cc(Cl)ccc1O [IMD-0354] | > 30 µM (inactive) | > 30 µM (inactive) | > 30 µM (inactive) | > 30 µM (inactive) | > 30 µM (inactive) | > 30 µM (inactive) | > 30 µM (inactive) | > 30 µM (inactive) |  | > 30 µM (inactive)
6 | CNC(=O)c1nn(C)c2c1C(C)(C)Cc1cnc(Nc3ccc(N4CCN(C)CC4)cc3)nc1-2 [MILCICLIB] | > 30 µM (inactive) |  | > 30 µM (inactive) | > 30 µM (inactive) | 0.681 µM (active) | > 30 µM (inactive) | > 30 µM (inactive) | > 30 µM (inactive) | > 30 µM (inactive) | > 30 µM (inactive)
7 | Cc1[nH]c(/C=C2\C(=O)Nc3ccccc32)c(C)c1CCC(=O)O [ORANTINIB] | > 30 µM (inactive) | > 30 µM (inactive) | > 30 µM (inactive) | > 30 µM (inactive) |  | > 30 µM (inactive) | > 30 µM (inactive) | > 30 µM (inactive) |  | 1.39 µM (active)
8 | Cc1nc(Nc2n[nH]c3c2CN(C(=O)N[C@H](CN(C)C)c2ccccc2)C3(C)C)c2sccc2n1 [PF-03758309] | > 30 µM (inactive) | > 30 µM (inactive) | > 30 µM (inactive) | > 30 µM (inactive) | 0.157 µM (active) | 3.87 µM (active) | > 30 µM (inactive) | > 30 µM (inactive) | 0.006 µM (active) | 
9 | CC(=O)NCC(=O)N1[C@@H]2CC[C@H]1c1ccc(Nc3ncc(C(F)(F)F)c(NC4CCC4)n3)cc12 [PF-03814735] | > 30 µM (inactive) | > 30 µM (inactive) | > 30 µM (inactive) | > 30 µM (inactive) | 0.406 µM (active) | > 30 µM (inactive) | > 30 µM (inactive) | > 30 µM (inactive) |  | 0.156 µM (active)
10 | Cn1ncc(Cl)c1-c1cc(C(=O)N[C@H](CN)Cc2ccc(F)c(F)c2)oc1Cl [UPROSERTIB] | > 30 µM (inactive) | > 30 µM (inactive) |  | > 30 µM (inactive) | 3.59 µM | > 30 µM (inactive) | > 30 µM (inactive) | > 30 µM (inactive) | > 30 µM (inactive) | > 30 µM (inactive)
11 | C[C@@H](N)c1ccc(C(=O)Nc2ccnc3[nH]ccc23)cc1 [Y-39983] | > 30 µM (inactive) | > 30 µM (inactive) |  | > 30 µM (inactive) | > 30 µM (inactive) | > 30 µM (inactive) | > 30 µM (inactive) | > 30 µM (inactive) | > 30 µM (inactive) | > 30 µM (inactive)
